Laboratory results reported in ChEMBL document CHEMBL1201862, “PubChem BioAssay data set” (2004).
The source made the active and inactive calls.

What was measured:
[1] = HepG2 cell cytotoxicity, dose response, cytotoxicity control for non-replicating M. tuberculosis project (AID 489018); assay type: functional; conditions: Mycobacterium tuberculosis
[2] = target: T1, Sentrin-specific protease 6 (Homo sapiens, UniProt Q9GZR1); assay type: functional;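 note: Luminescence-based dose-response confirmatory assay of SENP6 inhibition, following up an ultra-high-throughput screen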
T1 sequence (Q9GZR1 whole entry): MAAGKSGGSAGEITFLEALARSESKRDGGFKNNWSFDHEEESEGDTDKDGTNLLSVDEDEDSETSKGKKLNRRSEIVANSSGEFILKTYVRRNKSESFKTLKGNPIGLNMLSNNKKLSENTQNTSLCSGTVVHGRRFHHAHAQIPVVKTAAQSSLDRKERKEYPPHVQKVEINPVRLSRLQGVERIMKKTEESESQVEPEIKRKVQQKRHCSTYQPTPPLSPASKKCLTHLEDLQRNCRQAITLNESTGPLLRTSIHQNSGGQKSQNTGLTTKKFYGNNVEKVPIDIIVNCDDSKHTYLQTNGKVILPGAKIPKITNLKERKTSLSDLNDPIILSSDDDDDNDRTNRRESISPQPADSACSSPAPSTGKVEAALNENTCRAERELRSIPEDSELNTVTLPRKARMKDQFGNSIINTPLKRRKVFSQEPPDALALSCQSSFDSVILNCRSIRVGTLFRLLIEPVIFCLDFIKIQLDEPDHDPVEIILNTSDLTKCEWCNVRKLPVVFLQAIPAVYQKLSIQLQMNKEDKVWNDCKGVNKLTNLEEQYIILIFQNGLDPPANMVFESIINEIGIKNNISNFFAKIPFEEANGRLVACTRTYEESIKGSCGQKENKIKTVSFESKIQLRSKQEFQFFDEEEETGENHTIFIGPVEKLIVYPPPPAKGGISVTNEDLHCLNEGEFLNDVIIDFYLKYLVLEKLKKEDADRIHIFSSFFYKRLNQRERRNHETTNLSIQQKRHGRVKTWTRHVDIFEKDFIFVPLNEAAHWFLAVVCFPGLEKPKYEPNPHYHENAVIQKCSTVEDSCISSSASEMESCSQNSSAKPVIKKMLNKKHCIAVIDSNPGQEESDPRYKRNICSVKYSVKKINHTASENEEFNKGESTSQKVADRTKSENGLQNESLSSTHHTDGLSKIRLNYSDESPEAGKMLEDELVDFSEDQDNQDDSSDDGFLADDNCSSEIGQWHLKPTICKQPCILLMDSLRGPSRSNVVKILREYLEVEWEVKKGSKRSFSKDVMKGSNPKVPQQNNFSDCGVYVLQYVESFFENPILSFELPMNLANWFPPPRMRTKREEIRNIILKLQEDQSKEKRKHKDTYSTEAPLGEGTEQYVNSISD

[3] = target: T2, Neuropeptide Y receptor type 2 (Homo sapiens, UniProt P49146); test: Fluorescence-based cell-based high-throughput dose response assay for agonists of NPY-Y2. [Related pubchem assays: 1703 (Screening assay (CNGC inhibitors).), 1359 (Screening assay (NPY-Y2 potentiators or agonists).), 1304 (Screening assay (NPY-Y1 potentiators or agonists).), 1710 (Screening assay (NPY-Y2 agonists).), 1791 (Summary AID.)]; assay type: functional
T2 sequence (P49146 whole entry): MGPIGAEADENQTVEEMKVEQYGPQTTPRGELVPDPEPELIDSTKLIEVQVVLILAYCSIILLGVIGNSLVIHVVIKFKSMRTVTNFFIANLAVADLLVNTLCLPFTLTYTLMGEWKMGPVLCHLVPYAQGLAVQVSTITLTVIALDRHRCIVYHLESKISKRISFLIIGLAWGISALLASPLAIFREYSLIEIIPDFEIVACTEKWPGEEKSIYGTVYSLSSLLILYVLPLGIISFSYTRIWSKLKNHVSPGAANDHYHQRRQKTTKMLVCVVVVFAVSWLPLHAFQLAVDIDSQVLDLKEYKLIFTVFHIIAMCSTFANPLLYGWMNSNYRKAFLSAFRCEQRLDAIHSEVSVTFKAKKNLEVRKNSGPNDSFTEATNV

[4] = miR-122 activators in hepatoma reporter cells, dose response, cell-based, Huh7 psiCHECK-miR122, Renilla luciferase, cherry-picked (AID 651956); assay type: functional;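 note: huh7 hepatoma cells stably carrying a psiCHECK-2 miR-122 sensor plasmid; renilla luciferase signal reporting endogenous miR-122 activity after 48 h compound exposure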
Protein skinhead-1 = target: T3, Protein skinhead-1 (Caenorhabditis elegans, UniProt P34707); assay type: functional
T3 sequence (P34707 whole entry): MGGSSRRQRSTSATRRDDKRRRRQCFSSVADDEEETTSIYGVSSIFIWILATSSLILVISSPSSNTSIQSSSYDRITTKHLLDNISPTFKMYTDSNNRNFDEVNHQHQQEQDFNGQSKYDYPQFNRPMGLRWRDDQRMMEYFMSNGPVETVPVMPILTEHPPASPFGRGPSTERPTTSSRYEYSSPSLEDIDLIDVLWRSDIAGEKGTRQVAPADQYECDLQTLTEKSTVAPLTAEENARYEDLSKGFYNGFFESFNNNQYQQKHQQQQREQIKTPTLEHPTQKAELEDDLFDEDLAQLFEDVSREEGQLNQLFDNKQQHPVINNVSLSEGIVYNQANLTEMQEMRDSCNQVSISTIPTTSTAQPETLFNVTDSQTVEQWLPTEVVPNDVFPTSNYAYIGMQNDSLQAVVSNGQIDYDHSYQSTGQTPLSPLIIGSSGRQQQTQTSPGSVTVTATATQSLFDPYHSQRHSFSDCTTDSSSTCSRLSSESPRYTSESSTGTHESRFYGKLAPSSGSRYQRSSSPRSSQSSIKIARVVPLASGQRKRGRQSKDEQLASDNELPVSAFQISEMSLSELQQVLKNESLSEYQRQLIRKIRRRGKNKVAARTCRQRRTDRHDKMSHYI

[5] = target: T4, Zinc finger protein mex-5 (Caenorhabditis elegans, UniProt Q9XUB2); test: MEX-5/TCR-2 RNA interaction inhibitors, dose response, biochemical, C. elegans, fluorescence polarization (AID 1960)
T4 sequence (Q9XUB2 whole entry): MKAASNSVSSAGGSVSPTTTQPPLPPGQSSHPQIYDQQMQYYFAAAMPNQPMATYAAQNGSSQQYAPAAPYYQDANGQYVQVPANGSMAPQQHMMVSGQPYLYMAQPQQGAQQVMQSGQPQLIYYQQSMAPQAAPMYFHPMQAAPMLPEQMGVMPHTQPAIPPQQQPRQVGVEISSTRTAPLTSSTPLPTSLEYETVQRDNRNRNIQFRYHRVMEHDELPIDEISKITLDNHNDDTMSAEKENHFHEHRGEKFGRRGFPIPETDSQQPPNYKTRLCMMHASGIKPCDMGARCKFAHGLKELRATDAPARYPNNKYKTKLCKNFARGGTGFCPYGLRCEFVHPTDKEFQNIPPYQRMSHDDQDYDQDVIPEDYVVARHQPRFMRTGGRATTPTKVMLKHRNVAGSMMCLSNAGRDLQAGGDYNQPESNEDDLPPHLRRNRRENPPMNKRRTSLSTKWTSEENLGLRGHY

[6] = target: Polyadenylate-binding protein 1 (Homo sapiens, UniProt P11940); test: PABP1 MLLE–PAM2 interaction inhibitors, dose response, miRNA deadenylation inhibitor project, biochemical, fluorescence polarization, Cy5-PAM2 peptide, secondary (AID 602260); assay type: functional; conditions: read-out: IC50_Mean
[7] = cytotoxicity in HEK-293T cells, dose response, cytotoxicity control for TCR NF-kB inhibitor project, luminescence, T-cell screen hits (AID 489026); assay type: functional, cell-based;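 note: cells exposed to compound about 14 hours before the viability readout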

Polyadenylate-binding protein 1, sequence (P11940 whole entry): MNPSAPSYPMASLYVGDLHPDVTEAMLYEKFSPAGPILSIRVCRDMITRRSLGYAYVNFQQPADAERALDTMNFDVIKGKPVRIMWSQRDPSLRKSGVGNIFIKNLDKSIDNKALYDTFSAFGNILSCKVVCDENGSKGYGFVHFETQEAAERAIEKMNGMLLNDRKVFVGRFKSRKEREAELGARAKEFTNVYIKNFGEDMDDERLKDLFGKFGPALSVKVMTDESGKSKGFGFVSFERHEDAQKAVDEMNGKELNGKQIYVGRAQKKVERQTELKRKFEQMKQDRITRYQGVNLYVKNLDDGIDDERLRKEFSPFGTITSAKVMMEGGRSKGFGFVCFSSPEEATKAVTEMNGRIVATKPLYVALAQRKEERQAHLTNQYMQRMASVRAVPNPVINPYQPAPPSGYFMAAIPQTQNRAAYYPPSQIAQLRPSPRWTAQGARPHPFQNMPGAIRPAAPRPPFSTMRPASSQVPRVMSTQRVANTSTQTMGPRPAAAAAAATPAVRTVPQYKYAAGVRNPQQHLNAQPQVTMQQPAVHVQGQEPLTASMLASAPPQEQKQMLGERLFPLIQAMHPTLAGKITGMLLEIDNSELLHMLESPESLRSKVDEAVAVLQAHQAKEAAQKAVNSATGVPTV

Question: For `O=C(CNc1cccc2ccccc12)N/N=C/c1ccc([N+](=O)[O-])o1`, which CC50 [1] is on record?
Answer: The CC50 was 17.5 µM (active).

Question: Which IC50 [2] does the source give for `O=C1NC(=S)N/C1=C/c1cc2c(cc1[N+](=O)[O-])OCO2` here?
Answer: The IC50 was 14.1 µM (active).

Question: Which EC50 [3] does the source give for `O=C(CC(O)(C(F)(F)F)C(F)(F)F)Nc1ccc(Cl)c(Cl)c1` here?
Answer: Its EC50 is 21.7 µM (not active).

Question: And the AC50 [4]?
Answer: Its AC50 is 5.54 µM (active).

Question: And the IC50 (Protein skinhead-1)?
Answer: The IC50 was 19.6 µM (active).

Question: Which EC50 [5] does the source give for `O=C(O)CSc1cc(NS(=O)(=O)c2ccc(Br)cc2)c2ccccc2c1O` here?
Answer: The EC50 was 8.17 µM (active).

Question: And the IC50 [6]?
Answer: Its IC50 is > 66 µM (inactive).

Question: Which IC50 [7] does the source give for `Cc1ccc(NC(=O)C2=C(c3ccccc3)S(=O)(=O)CCS2(=O)=O)cc1` here?
Answer: The IC50 was > 80 µM (inactive).
